{"source": "patent US10568892B2", "about": "“Cycloartane tetracyclic triterpenoid compound, preparation method therefor and use thereof” (Hefei Cosource Pharmaceuticals Inc., priority 2016, dated 2020)", "key": {"[1]": {"system": "ventricular papillary muscle cell of guinea pig", "assay": "Action potential of the ventricular papillary muscle cell of guinea pig (electrophysiological recording)", "format": "cell-based", "conditions": "for percent change in action potential duration at 0.0005 µM / percent change in action potential duration at 0.005 µM / percent change in action potential duration at 0.05 µM: Cavia porcellus, 20 min, read-out: APD, Change rate (%); for APD50, Pre-administration / APD90, Pre-administration: baseline; for Effect on the APD value of the action potential of the papillary muscle (in words): Table 3 summary", "method": "Method: One guinea pig was taken to violently hit the back of the brain such that it fainted. The common carotid artery was cut off for bleeding to kill the guinea pig. The chest was incised to expose the heart, and the ventricle was cut open along the interventricular septum to expose the lumen of the left ventricle. The papillary muscles were quickly taken out and placed in a Kreb's solution saturated with O2 (mixed gas of 95% O2 and 5% CO2) at 0° C. After the microscopic dressing, the papillary muscle specimen was fixed with a stainless steel needle on the silicone rubber at the bottom of the perfusion bath, and perfused with the oxygen-saturated Kreb's solution. The relevant parameters for perfusion: the temperature was 37±0.5° C., and the flow rate was 4 mL/min.\nCellular action potentials were recorded using a conventional electrophysiological method. The glass electrode filled with 3M KCl saturated solution and having a tip resistance of 15-30 MΩ was fixed on the microelectrode manipulator MP-2. The glass electrode was gently inserted into the superficial layer of the prepared papillary muscle specimen using a microelectrode pusher. The electrode was adjusted to provide the predetermined bioelectrical stimulation with the triple-channel SEN-7203 electronic stimulator and SS-202 J isolator. The bioelectrical signal was amplified by the MEZ-8301 amplifier and then input to the computerized electrophysiological recording and analysis system Powerlab 4/25. Subsequently, the relevant parameters of the action potential for the ventricular papillary muscle were analyzed through the analysis system. The relevant parameters for electrical stimulation: 30 ms latency, 7 ms wavewidth, 1 Hz frequency, 52.1 my stimulation intensity.\nIn the compound screening test stage, after the ventricular papillary muscle specimen of the guinea pig was fixed, it was first perfused with a normal Kreb's solution for about 85 minutes for stabilization, and the relevant parameters of the cellular action potential before administration were recorded at about 80 min after the start of perfusion. The three-limb tube was used to convert the perfusates containing the title compounds. The title compounds were continuously perfused for about 25 min successively with low (0.0005 μM), medium (0.005 μM), and high (0.05 μM) concentrations, respectively. At about 20 min after the start of drug perfusions at different concentrations, the relevant parameters of the action potentials for the ventricular papillary muscle of guinea pig were observed and recorded, respectively. The normal Kreb's solution was used to perfuse and elute for about 25 min during the intervals between drug perfusions at different concentrations.\nThe experiment was divided into the following five groups with 6 animals in each group: a vehicle control group, a 369 low dose (0.0005 μM) group, a 369 medium dose (0.005 μM) group, a 369 high dose (0.05 μM) group, and an amiodarone (10 μM) positive control group. After the ventricular papillary muscle specimen of the guinea pig was fixed, it was first perfused with a normal Kreb's solution for about 85 minutes for stabilization, and the relevant parameters of the cellular action potential before administration were recorded at about 80 min after the start of perfusion. According to groups, the three-limb tube was configured to convert the perfusates containing the vehicle, positive control, or Compound 369 at the corresponding concentrations to continuously perfuse for about 25 min. At about 20 min after the start of the perfusions, the relevant parameters of the action potentials for the ventricular papillary muscle of guinea pig were observed and recorded."}, "SD rats": {"system": "SD rats", "assay": "Rat myocardial ischemia model with coronary artery ligation and reperfusion (arrhythmia incidence)", "format": "in vivo", "conditions": "for Death (%) / Death n / Ventricular fibrillation (%) / Ventricular fibrillation n / Ventricular premature beat (%) / Ventricular premature beat n / Ventricular tachycardia (%) / Ventricular tachycardia n: injection (sublingually) 5 min before ischemia", "from_the_text": "Method: SD rats were anesthetized with pentobarbital, and a cervical midline incision was made to separate and cut off the trachea such that it was connected to a respirator. The skin was cut along the midline of the left clavicle of the rat, and the chest was opened between the left third and fourth ribs to gently squeeze out the heart. The pericardium was opened, the needle was inserted at the left edge of the pulmonary artery cone and 2 mm at the lower edge of the left atrial appendage. The 6-0 non-invasive suture was threaded through the superficial myocardium, with the left anterior descending coronary artery (LAD) located thereon. After stabilization for 5 min, a double-layer plastic cannula was put on, and the cable tie was tighten to complete the myocardial ischemia induced by left coronary artery occlusion. The criterion for myocardial ischemia is the occurrence of myocardial infarction (St-segment ran up or T-wave was shown as high sharp wave) in the electrocardiogram and the presence of local cyanosis in the heart. After 5 min of myocardial ischemia, the inner cannula was withdrawn, that is, the wire knot was released for reperfusion, and the electrocardiogram of reperfusion in the rat was recorded.\nThe administration was performed at 5 min before the ischemia by coronary artery ligation, and the administration mode was injection administration (sublingually)."}, "[2]": {"assay": "Single-dose toxicity (MTD) in KM mice", "format": "in vivo", "conditions": "in vivo, po; KM mouse; single intragastrical administration; read-out: Maximum tolerance dose (MTD)", "from_the_text": "The results of the experimental study on the toxicity of Compound 369 administrated through a single intravenous or intragastrical administration in SD rats and KM mice are shown in Table 9."}}, "note": "Read-outs that look alike come from different tables or passages of the source. Marks after values point to notes of the source that are not given here.", "data": [{"smiles": "CN[C@H]1CC[C@]23C[C@]24CC[C@]2(C)C(C(C)=O)=CC[C@@]2(C)[C@@H]4CC[C@H]3C1(C)C", "note": "[Compound 369, (3β,5α)-4,4,14-trimethyl-3-(methylamino)-9,19-cyclopregnan-16-en-20-one]", "values": [{"measurement": "Effect on APD, APD50 and APD90 (in words)", "setting": "[1]; 0.0005 μM, 0.005 μM and 0.05 μM, concentration-dependent", "result": "can prolong APD, APD50 and APD90"}, {"measurement": "percent change in action potential duration at 0.0005 µM", "setting": "[1]; n = 6, x ± SD, 0.0005 μM", "result": 43.6, "unit": "%"}, {"measurement": "percent change in action potential duration at 0.005 µM", "setting": "[1]; n = 6, x ± SD, 0.005 μM", "result": 43.5, "unit": "%"}, {"measurement": "percent change in action potential duration at 0.05 µM", "setting": "[1]; n = 6, x ± SD, 0.05 μM", "result": 66.5, "unit": "%"}, {"measurement": "percent change in action potential duration at 0.0005 µM", "setting": "[1]; screening stage, 0.0005 μM", "result": 26.8, "unit": "%"}, {"measurement": "percent change in action potential duration at 0.005 µM", "setting": "[1]; screening stage, 0.005 μM", "result": 47.9, "unit": "%"}, {"measurement": "percent change in action potential duration at 0.05 µM", "setting": "[1]; screening stage, 0.05 μM", "result": 65.7, "unit": "%"}, {"measurement": "APD50, Change rate (%)", "setting": "[1]; n = 6, x ± SD, 0.0005 μM", "result": "49.41% ± 16.99%"}, {"measurement": "APD50, Post-administration", "setting": "[1]; n = 6, x ± SD, 0.0005 μM", "result": "0.0572 ± 0.0247^a"}, {"measurement": "APD90, Change rate (%)", "setting": "[1]; n = 6, x ± SD, 0.0005 μM", "result": "44.30% ± 17.58%^b"}, {"measurement": "APD90, Post-administration", "setting": "[1]; n = 6, x ± SD, 0.0005 μM", "result": "0.0795 ± 0.0260^a"}, {"measurement": "APD, Post-administration", "setting": "[1]; n = 6, x ± SD, 0.0005 μM", "result": "0.0930 ± 0.0246^a"}, {"measurement": "APD50, Pre-administration", "setting": "[1]; n = 6, x ± SD, 0.0005 μM group", "result": "0.0365 ± 0.0183"}, {"measurement": "APD90, Pre-administration", "setting": "[1]; n = 6, x ± SD, 0.0005 μM group", "result": "0.0537 ± 0.0235"}, {"measurement": "APD50, Change rate (%)", "setting": "[1]; n = 6, x ± SD, 0.005 μM", "result": "47.25% ± 28.78%"}, {"measurement": "APD50, Post-administration", "setting": "[1]; n = 6, x ± SD, 0.005 μM", "result": "0.0610 ± 0.0342^a"}, {"measurement": "APD90, Change rate (%)", "setting": "[1]; n = 6, x ± SD, 0.005 μM", "result": "40.25% ± 24.21%^b"}, {"measurement": "APD90, Post-administration", "setting": "[1]; n = 6, x ± SD, 0.005 μM", "result": "0.0838 ± 0.0345^a"}, {"measurement": "APD, Post-administration", "setting": "[1]; n = 6, x ± SD, 0.005 μM", "result": "0.1023 ± 0.0365^a"}, {"measurement": "APD50, Pre-administration", "setting": "[1]; n = 6, x ± SD, 0.005 μM group", "result": "0.0428 ± 0.0244"}, {"measurement": "APD90, Pre-administration", "setting": "[1]; n = 6, x ± SD, 0.005 μM group", "result": "0.0604 ± 0.0243"}, {"measurement": "APD50, Change rate (%)", "setting": "[1]; n = 6, x ± SD, 0.05 μM", "result": "101.63% ± 62.10%^b"}, {"measurement": "APD50, Post-administration", "setting": "[1]; n = 6, x ± SD, 0.05 μM", "result": "0.0764 ± 0.0270^a"}, {"measurement": "APD90, Change rate (%)", "setting": "[1]; n = 6, x ± SD, 0.05 μM", "result": "70.81% ± 46.76%^b"}, {"measurement": "APD90, Post-administration", "setting": "[1]; n = 6, x ± SD, 0.05 μM", "result": "0.1006 ± 0.0242^a"}, {"measurement": "APD, Post-administration", "setting": "[1]; n = 6, x ± SD, 0.05 μM", "result": "0.1199 ± 0.0235^a"}, {"measurement": "APD50, Pre-administration", "setting": "[1]; n = 6, x ± SD, 0.05 μM group", "result": "0.0385 ± 0.0090"}, {"measurement": "APD90, Pre-administration", "setting": "[1]; n = 6, x ± SD, 0.05 μM group", "result": "0.0603 ± 0.0103"}, {"measurement": "Effect on the APD value of the action potential of the papillary muscle (in words)", "setting": "[1]; screening stage", "result": "the strongest effect"}, {"measurement": "Effect on the APD value of the action potential of the papillary muscle (in words)", "setting": "[1]; screening stage, listed as Example 1", "result": "a certain degree of prolonged effects"}, {"measurement": "APD, Post-administration", "setting": "[1]; screening stage, 0.0005 μM, about 20 min perfusion", "result": 0.0912}, {"measurement": "APD, Post-administration", "setting": "[1]; screening stage, 0.005 μM, about 20 min perfusion", "result": 0.1031}, {"measurement": "APD, Post-administration", "setting": "[1]; screening stage, 0.05 μM, about 20 min perfusion", "result": 0.1168}, {"measurement": "Death (%)", "setting": "SD rats; 1 mg/kg", "result": 38, "unit": "%"}, {"measurement": "Death n", "setting": "SD rats; 1 mg/kg", "result": 3}, {"measurement": "Ventricular fibrillation (%)", "setting": "SD rats; 1 mg/kg", "result": 63, "unit": "%"}, {"measurement": "Ventricular fibrillation n", "setting": "SD rats; 1 mg/kg", "result": 5}, {"measurement": "Ventricular premature beat (%)", "setting": "SD rats; 1 mg/kg", "result": 100, "unit": "%"}, {"measurement": "Ventricular premature beat n", "setting": "SD rats; 1 mg/kg", "result": 8}, {"measurement": "Ventricular tachycardia (%)", "setting": "SD rats; 1 mg/kg", "result": 100, "unit": "%"}, {"measurement": "Ventricular tachycardia n", "setting": "SD rats; 1 mg/kg", "result": 8}, {"measurement": "Death (%)", "setting": "SD rats; 10 mg/kg", "result": "0 (0) %"}, {"measurement": "Death n", "setting": "SD rats; 10 mg/kg", "result": "0 (0)"}, {"measurement": "Ventricular fibrillation (%)", "setting": "SD rats; 10 mg/kg", "result": 14, "unit": "%"}, {"measurement": "Ventricular fibrillation n", "setting": "SD rats; 10 mg/kg", "result": 1}, {"measurement": "Ventricular premature beat (%)", "setting": "SD rats; 10 mg/kg", "result": 86, "unit": "%"}, {"measurement": "Ventricular premature beat n", "setting": "SD rats; 10 mg/kg", "result": 6}, {"measurement": "Ventricular tachycardia (%)", "setting": "SD rats; 10 mg/kg", "result": 71, "unit": "%"}, {"measurement": "Ventricular tachycardia n", "setting": "SD rats; 10 mg/kg", "result": 5}, {"measurement": "Death (%)", "setting": "SD rats; 30 mg/kg", "result": "0 (0) %"}, {"measurement": "Death n", "setting": "SD rats; 30 mg/kg", "result": "0 (0)"}, {"measurement": "Ventricular fibrillation (%)", "setting": "SD rats; 30 mg/kg", "result": "0 (0) %"}, {"measurement": "Ventricular fibrillation n", "setting": "SD rats; 30 mg/kg", "result": "0 (0)"}, {"measurement": "Ventricular premature beat (%)", "setting": "SD rats; 30 mg/kg", "result": 83, "unit": "%"}, {"measurement": "Ventricular premature beat n", "setting": "SD rats; 30 mg/kg", "result": 5}, {"measurement": "Ventricular tachycardia (%)", "setting": "SD rats; 30 mg/kg", "result": 17, "unit": "%"}, {"measurement": "Ventricular tachycardia n", "setting": "SD rats; 30 mg/kg", "result": 1}, {"measurement": "Numbers of animals (incidences) with ventricular premature beat, ventricular tachycardia, ventricular fibrillation, and death vs vehicle (in words)", "setting": "SD rats; 1 to 30 mg/kg, dose-response relationship", "result": "lower"}, {"measurement": "MTD", "setting": "[2]", "result": 1000, "unit": "mg/kg"}]}]}
